Experimental data taken from paper PMC8777785, “Antimicrobial Activity of Snake β-Defensins and Derived Peptides” (Toxins, 2021).
In brackets after ≈: the same amount, converted by molar mass. Residues, ends and D or L forms follow the SMILES beside them.

How the values were obtained:
Citrobacter freundii = test: Microbroth dilution assay, MIC; assay type: cell-based; conditions: overnight 37 °C, read at 600 nm, three independent experiments
Method: (§1) The β-defensins were tested using a microbroth dilution assay. It consists of incubating the bacteria (4.105 colony-forming unit—CFU/mL) and the peptide (from 1 to 512 µg/mL) in liquid broth. After the incubation at 37 °C during the night, the bacterial growth was detected by spectrophotometry at 600 nm. If the measure is similar to the broth, it […]. […] The β-defensins were tested against B. jararaca oral flora because it would be of biological and medical interest. In addition, we tested on E. coli ATCC 25922 and M. luteus that are common Gram-negative and Gram-positive bacteria used in antibacterial tests.
(§2) The antibacterial activity of the alkylated peptides was tested against Gram-negative (G−) bacteria (Klebsiella pneumonia, Serratia marcescens, Morganella morganii, Providencia rettgeri, Citrobacter freundii, Escherichia coli ATCC 25922 and Gram-positive (G+) bacteria (Micrococcus luteus A270 and Staphylococcus aureus) using microbroth assay. In a 96-well plate, 90 µL of 10% tryptone soy broth (TSB) with 4 × 10^5 colony-forming unit (CFU/mL) were mixed with serial twofold dilutions of β-defensins duplicate in concentrations from 512 to 1 µg/mL. The derived peptides coded as PS1, PS2, PS3, PS5, and PS6 (Table 1) were tested against these bacteria in serial twofold dilutions with concentrations bellow 700 µg/mL. After overnight incubation at 37 °C, the turbidity of the bacterial culture was read at 600 nm (Epoch microplate reader, Biotek). The minimal inhibitory concentration (MIC) of each peptide was determined as the lowest concentration that results in no visible bacterial growth. The MIC resulted from three independent experiments. The bacteria K. pneumonia, S. marcescens, M. morganii, P. rettgeri, C. freundii, M. luteus A270 and S. aureus were isolated from Bothrops jararaca buccal flora and kindly provided by Dr. Márcia R. Franzolin (Laboratory of Bacteriology—Instituto Butantan). M. luteus was kindly provided by Dr. Pedro I. da Silva Jr. (Laboratory of Applied Toxinology—Instituto Butantan).

[1] = system: Escherichia coli ATCC 25922; test: Microbroth dilution assay, MIC; assay type: cell-based; conditions: overnight 37 °C, read at 600 nm, three independent experiments
Method: as §1, §2

Micrococcus luteus A270 = test: Microbroth dilution assay, MIC; assay type: cell-based; conditions: overnight 37 °C, read at 600 nm, three independent experiments
Method: as §1, §2

Staphylococcus aureus = test: Microbroth dilution assay, MIC; assay type: cell-based; conditions: overnight 37 °C, read at 600 nm, three independent experiments
Method: as §1, §2

Klebsiella pneumonia = test: Microbroth dilution assay, MIC; assay type: cell-based, Klebsiella pneumoniae; conditions: short derived peptides, 2.75 to 700 µg/mL, overnight 37 °C, read at 600 nm, three independent experiments
Method: as §1, §2

[2] = system: Aspergillus fumigatus (IOC 4526); test: Resazurin microtiter assay plate, antifungal MIC90; assay type: cell-based; conditions: resazurin colour change, RPMI 1640, 1 to 250 μM, 28 °C, 24–72 h; three independent experiments
Method: (§3) The derived peptides were also tested against fungi species using the classical resazurin microtiter assay plate method. It is based on the color change of the rezazurin dye that in blue indicates the absence of growth in at least 90%, and pink refers to microorganism growth. MIC is determined as the minimal concentration of the sample that can prevent the color change from blue to pink and refers to the inhibition of 90% of microorganisms.
(§4) The antifungal activity was evaluated by the microdilution assay as previously described on clinical strains of Candida albicans (IOC 4525), Cryptococcus neoformans (IOC 4528), Trichophyton rubrum (IOC 4527) and Aspergillus fumigatus (IOC 4526). The fungi were cultivated in potato dextrose agar at 28 °C according to the Clinical and Laboratory Standards Institute recommendations. Fungal suspensions were prepared in RPMI 1640 culture media; the CFU/mL was adjusted to 0.5–2.5 × 10^3 for yeasts (C. albicans and C. neoformans) and 0.4–5 × 10^4 CFU/mL for filamentous fungi (T. rubrum e A. fumigatus), by comparison with a standard curve previously stablished in our laboratory.
(§5) The peptides PS1, PS2, PS, PS3, PS4, PS5 and PS6 at 1 mM in acetic acid at 0.01% were diluted in RPMI 1640 culture media at concentrations ranging from 1 to 250 μM. Amphotericin B (AMB) at concentrations below 15 μg/mL (16 μM) and acetic acid from 0.0002 to 0.0025% was used as control.
(§6) The fungi suspensions were added to a 96 well plate (100 µL/well) and the samples (100 µL) in different concentrations were added to each well. The plate was incubated at 28 °C for 24–72 h, and 24 h before the end of the assay 25 µL of the rezazurin dye at 0.02% were added to each well. The minimal inhibitory concentration (MIC90) was defined as the lowest concentration that prevents the rezazurin’s change in color from blue to pink due to the inhibition of at least 90% of the microorganism’s growth. The assays were performed in three independent experiments.

[3] = system: Candida albicans (IOC 4525); test: Resazurin microtiter assay plate, antifungal MIC90; assay type: cell-based; conditions: resazurin colour change, RPMI 1640, 1 to 250 μM, 28 °C, 24–72 h; three independent experiments
Method: as §3, §4, §5, §6

[4] = system: Cryptococcus neoformans (IOC 4528); test: Resazurin microtiter assay plate, antifungal MIC90; assay type: cell-based; conditions: resazurin colour change, RPMI 1640, 1 to 250 μM, 28 °C, 24–72 h; three independent experiments
Method: as §3, §4, §5, §6

[5] = system: Trichophyton rubrum (IOC 4527); test: Resazurin microtiter assay plate, antifungal MIC90; assay type: cell-based; conditions: resazurin colour change, RPMI 1640, 1 to 250 μM, 28 °C, 24–72 h; three independent experiments
Method: as §3, §4, §5, §6

[6] = short derived peptides, 2.75 to 700 µg/mL
[7] = snake β-defensins, linear (alkylated) except native crotamine, 10% TSB, 4 × 10^5 CFU/mL, 512 to 1 µg/mL

Compound | MIC, C. freundii (Citrobacter freundii; [6]) | MIC, E. coli [1, 6] | MIC, M. luteus (Micrococcus luteus A270; [6]) | MIC, S. aureus (Staphylococcus aureus; [6]) | MIC, K. pneumoniae (Klebsiella pneumonia) | MIC90, Aspergillus fumigatus [2] | MIC90, Candida albicans [3] | MIC90, Cryptococcus neoformans [4] | MIC90, Trichophyton rubrum [5] | MIC, C. freundii (Citrobacter freundii; [7]) | MIC, E. coli [1, 7] | MIC, M. luteus (Micrococcus luteus A270; [7]) | MIC, S. aureus (Staphylococcus aureus; [7])
CSCC[C@H](NC(=O)[C@H](CCC(N)=O)NC(=O)[C@@H](N)CO)C(=O)NCC(=O)N[C@@H](CCC(N)=O)C(=O)N[C@@H](CCSC)C(=O)N[C@@H](CO)C(=O)N[C@@H](CO)C(=O)N[C@@H](CCCNC(=N)N)C(=O)N[C@@H](CCCNC(=N)N)C(=O)N[C@@H](CCCNC(=N)N)C(=O)N[C@@H](Cc1ccccc1)C(=O)NCC(=O)N[C@@H](CCCCN)C(=O)O [PS4] (H-SQMGQMSSRRRFGK-OH) | >423 µM | >423 µM | 26.6 µM (≈ 44 µg/mL) | >423 µM | >423 µM | >250 µM | >250 µM | >250 µM | >250 µM |  |  |  | 
QEWCRGLGGFCSFYQCRPGHDLGPQDCWPERRCCRWGK [DefbLm01, synthetic β-defensin deduced from L. muta gene, GenBank KC117171] |  |  |  |  |  |  |  |  |  | >113 µM | >113 µM | 28.4 µM | >113 µM
QRICLGGRGFCHSTPCPRSTIDYGKKDCWGSLRCCEPKRPGK [DefbPm, synthetic β-defensin deduced from P. mertensis gene, GenBank KX664436] |  |  |  |  |  |  |  |  |  | >109 µM | >109 µM | 6.8 µM | >109 µM
QGQCHQQRGRCFLHQCPLSHYFLGRLDCGPGRRCCRRRK [DefbLm02, synthetic β-defensin deduced from L. muta gene, GenBank KC117172] |  |  |  |  |  |  |  |  |  | 3.4 µM | 3.4 µM | 0.9 µM | 6.8 µM
QDLCHNLGGRCFRNRCSWSLRNHGGQDCPWGSVCCKP [DefbTs, synthetic β-defensin deduced from T. strigatus gene, GenBank KX664429] |  |  |  |  |  |  |  |  |  | >122 µM | >122 µM | 15.3 µM | >122 µM
QRRCHQKGGMCLPGPCPPGYDSLGQQDCRRGQKCCIKRFGK [DefbBju01, synthetic β-defensin deduced from B. jararacussu gene, GenBank KC117165] |  |  |  |  |  |  |  |  |  | >111 µM | >111 µM | >111 µM | >111 µM
QPECLRQGGMCRPRLCPYVSLGQLDCQNGHVCCRKKPRK [DefbBd03, synthetic β-defensin deduced from B. diporus gene, GenBank KC117160] |  |  |  |  |  |  |  |  |  | >115 µM | >115 µM | 0.9 µM | >115 µM
Crotamine |  |  |  |  |  |  |  |  |  | 6.7 µM | 13.3 µM | 1.7 µM | >105 µM
QRRCRQRRGICRPRPCPPENFSLGRLDCQMGRMCCRRRFGK [DefbBm02, synthetic β-defensin deduced from B. mattogrossensis gene, GenBank KC117167] |  |  |  |  |  |  |  |  |  | 1.6 µM | 3.2 µM | 0.8 µM | 12.8 µM
QPECCQEGGICHSKQCPLGYSSLGRLDCQLGQRCCIRIFGK [DefbBn02, synthetic β-defensin deduced from B. neuwiedi gene, GenBank KC117169] |  |  |  |  |  |  |  |  |  | >113 µM | >113 µM | >113 µM | >113 µM
QRRCRQRRGICRPRPCPPENFSLGRLDCQMGQMCCRRRFGK [DefbBm03, synthetic β-defensin deduced from B. mattogrossensis gene, GenBank KC117168] |  |  |  |  |  |  |  |  |  | 3.2 µM | 1.6 µM | 1.6 µM | >103 µM
DPVTCLKSGAICHPVFCPRRYKQIGTCGLPGTKCCKKP [hBd02, synthetic human β-defensin, GenBank AF071216, reference compound] |  |  |  |  |  |  |  |  |  | >124 µM | 15.6 µM | 2 µM | >124 µM
QPQCRWLDGFCHSSPCPSGTTSIGQQDCLWYESCCIPRYEK [Crotasin, synthetic β-defensin deduced from C. durissus gene, GenBank AF250212] |  |  |  |  |  |  |  |  |  | >108 µM | >108 µM | >108 µM | >108 µM
QEECLQQGGFCRLIRCPFGYDSLEQQDCRKGQRCCIRKPRK [DefbBj01, synthetic β-defensin deduced from B. jararaca gene, GenBank KC117163] |  |  |  |  |  |  |  |  |  | >105 µM | >105 µM | 3.2 µM | >105 µM
N=C(N)NCCC[C@H](NC(=O)[C@H](Cc1c[nH]c2ccccc12)NC(=O)[C@H](CCCNC(=N)N)NC(=O)[C@@H](N)CO)C(=O)N[C@@H](Cc1c[nH]c2ccccc12)C(=O)N[C@@H](CCCCN)C(=O)N[C@@H](CO)C(=O)O [PS6] (H-SRWRWKS-OH) |  | 697 µM (≈ 701 µg/mL) | 43.8 µM (≈ 44 µg/mL) | 349 µM (≈ 351 µg/mL) | >697 µM | >250 µM | >250 µM | >250 µM | >250 µM |  |  |  | 
